Laboratory results as given in patent US20150368220A1, “PHARMACEUTICAL COMPOSITION FOR TREATING OR PREVENTING STRESS URINARY INCONTINENCE OR MIXED URINARY INCONTINENCE, AND METHOD FOR SCREENING COMPOUND COMPRISED IN SAID PHARMACEUTICAL COMPOSITION” (Astellas Pharma Inc., priority 2012, published 2015).

Key:
[1] = test system: isolated urethra; assay: Urethra contracting action using isolated urethra (Example 3); details: isolated urethra of SD female rat, cumulative 10^-5 M to 10^-12 M, FIGS. 6 and 7
Description: The urethra was isolated from an SD female rat having a body weight of 100 g to 500 g. The isolated urethra was incised vertically and then made into strip-shaped specimens having a width of about 3 mm. The specimens were suspended in a 10 mL tissue bus filled with a Krebs—Henseleit solution (pH 7.4) in the circular muscle direction. The Krebs—Henseleit solution was aerated at 95% O2 and 5% CO2, and warmed at 37° C. The resting tension was set to 0.5 g and the isometric contraction was recorded. After the resting tension was stabilized, a 10 μM phenylephrine solution was added thereto to cause contraction.

[2] = molecular target: T1, human MT1 receptor (Homo sapiens, UniProt P48039); assay: Intracellular Ca2+ concentration by FLIPR in human MT1 receptor expressing cells (Example 2); type: cell-based; details: human MT1 receptor expressing HEK293 cells, 10^-5 M to 10^-12 M, FIGS. 2 and 4
T1 construct: expressed in transfected cells; vector pCDNA3.1/Zeo; co-transfected with a Gq/i chimeric G protein expression vector
T1 sequence (P48039 whole entry): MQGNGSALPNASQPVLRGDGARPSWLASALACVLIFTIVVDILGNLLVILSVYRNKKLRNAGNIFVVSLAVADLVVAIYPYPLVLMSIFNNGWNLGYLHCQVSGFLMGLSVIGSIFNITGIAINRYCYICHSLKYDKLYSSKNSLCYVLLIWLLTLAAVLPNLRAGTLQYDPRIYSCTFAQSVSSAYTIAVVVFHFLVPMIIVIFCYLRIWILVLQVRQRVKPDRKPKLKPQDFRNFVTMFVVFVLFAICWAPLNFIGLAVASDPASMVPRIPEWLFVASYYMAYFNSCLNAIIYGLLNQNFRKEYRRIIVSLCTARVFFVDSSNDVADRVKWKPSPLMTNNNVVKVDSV
Description: (§1) The expression vectors for human MT1 and MT2 receptors were introduced into HEK293 cells, together with a Gq/i chimeric G protein expression vector, respectively. The incorporation was carried out in accordance with instructions, using a Lipofectoamine (registered trademark) 2000 Reagent (Invitrogen Inc.). Using Zeocin and hygromycin as a resistant agent, the cells were cultured for 15 days in the presence of 0.02 mg/mL and 0.05 mg/mL of the agents, respectively, thereby acquiring a drug-resistant clone.
(§2) The respective stably expressing cells were dispensed into 96 wells in a poly-D-lysine-coated plate (Falcon) the day before the experiment to give 40,000 cells/well, and cultured in a DMEM (Invitrogen Inc.) medium containing 10% FBS at 37° C. and 5% CO2 overnight. The medium was replaced with a loading buffer (a washing solution containing 4 μM Fluo-4AM (Dojindo Co.) (Hank's balanced salt solution (HBSS), 20 mM HEPES-NaOH, 2.5 mM probenecid)) and cultured at 37° C. and 5% CO2 for 1 hour.

[3] = test system: SD female rat; assay: Effect on rat blood pressure (Example 6); type: in vivo; details: intravenous, at a dose for increasing the urethral pressure, FIGS. 21 and 22
Description: An SD female rat was anesthetized with urethane and allowed to undergo laparotomy, and then a catheter was mounted in the bladder dome for urine leakage in the bladder. Further, a catheter was mounted in the femoral vein for the administration of a compound and a catheter was mounted in the carotid artery for the measurement of blood pressure described in Example 6 as described later. A microchip transducer catheter (Milar Instruments) was inserted toward the bladder from the external urethral meatus for the measurement of the urethral pressure, and fixed such that the transducer portion was positioned around the portion at which the urethral pressure was maximized (10.0 mm to 15.0 mm from the external urethral meatus). The catheter mounted in the carotid artery was attached to a pressure transducer and the blood pressure was measured.
(2) In the experiment for measuring the urethral pressure in Example 4, the blood pressure was measured simultaneously. After the urethral pressure and the blood pressure were stabilized, the compound was administered and a change in the blood pressure was measured.

[4] = test system: SD female rat; assay: Effect on urethral pressure, perfusion method (Example 4); type: in vivo; details: intravenous, anesthetized SD female rat, FIGS. 10 to 14
Description: An SD female rat was anesthetized with urethane and allowed to undergo laparotomy, the bladder dome was then incised, and a catheter having a barb at the tip was inserted toward the urethra from the bladder, and ligated and fixed such that the tip of the catheter was positioned around the proximal urethra. Physiological saline was injected at a predetermined flow rate into the urethra through the catheter and the urethral pressure was measured with a pressure transducer. After the urethral pressure was stabilized, compounds dissolved in physiological saline, or physiological saline containing 5% N,N-dimethylacetamide(DMA) and 0.5% Cremophor were intravenously administered at a dose of 1 μg/kg, 10 μg/kg, 100 μg/kg, or 1000 μg/kg and a change in the urethral pressure was measured.

[5] = test system: isolated bladder; assay: Isolated bladder contraction (Example 6); details: isolated bladder of SD female rat, cumulative addition
Description: (§3) (1) The bladder and uterus were isolated from an SD female rat having a body weight of 100 g to 500 g. For the isolated bladder, the parts below the parietal region and the triangular portion were resected to make only the body portion into a ring state, and further, one side of the tissue in the ring state was cut to a band-shaped tissue. The bladder in the band shape was isolated parallel to the median axis of the bladder to prepare strip-shaped specimens having a length of about 10 mm and a width of about 3 mm. The specimens were suspended in a 10 mL tissue bus filled with a Krebs-Henseleit solution (pH 7.4) at a resting tension of 0.5 g and the isometric contraction was recorded. For the isolated uterus, the edge portion of the uterus was cut and incised vertically, whereby a strip-shaped specimen having a width of about 6 mm was then prepared. The specimens were suspended in a 10 mL tissue bus filled with a Krebs—Henseleit solution (pH 7.4) at a resting tension of 0.5 g and the isometric contraction was recorded. […] For the bladder specimen, after the resting tension was stabilized, a 60 mM KCl solution or a 10 μM carbachol solution was added thereto to cause contraction. The specimens were washed and stabilized, and then the compounds were cumulatively administered.

[6] = test system: isolated uterus; assay: Isolated uterus contraction (Example 6); details: isolated uterus of SD female rat
Description: as §3

[7] = test system: SD female rat; assay: Effect on urethral pressure, microchip method (Example 4); type: in vivo; details: intravenous, anesthetized SD female rat, FIGS. 8 and 9
Description: An SD female rat was anesthetized with urethane and allowed to undergo laparotomy, and then a catheter was mounted in the bladder dome for urine leakage in the bladder. Further, a catheter was mounted in the femoral vein for the administration of a compound and a catheter was mounted in the carotid artery for the measurement of blood pressure described in Example 6 as described later. […] The catheter mounted in the carotid artery was attached to a pressure transducer and the blood pressure was measured.

[8] = molecular target: T2, human MT2 receptor (Homo sapiens, UniProt P49286); assay: Intracellular Ca2+ concentration by FLIPR in human MT2 receptor expressing cells (Example 2); type: cell-based; details: human MT2 receptor expressing HEK293 cells, 10^-5 M to 10^-12 M, FIGS. 3 and 5
T2 construct: expressed in transfected cells; vector pCDNA3.1/Zeo; co-transfected with a Gq/i chimeric G protein expression vector
T2 sequence (P49286 1-362): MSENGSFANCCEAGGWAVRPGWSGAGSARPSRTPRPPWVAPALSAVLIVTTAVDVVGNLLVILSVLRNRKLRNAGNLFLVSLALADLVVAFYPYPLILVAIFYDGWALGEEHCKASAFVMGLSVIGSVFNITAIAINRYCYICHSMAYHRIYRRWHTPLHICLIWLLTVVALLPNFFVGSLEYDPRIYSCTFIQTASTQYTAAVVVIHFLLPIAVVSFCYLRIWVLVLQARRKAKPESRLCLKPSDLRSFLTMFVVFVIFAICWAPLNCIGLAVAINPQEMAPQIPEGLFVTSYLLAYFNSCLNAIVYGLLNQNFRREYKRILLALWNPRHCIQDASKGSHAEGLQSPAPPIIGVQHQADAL
Description: as §1, §2

SMILES: CCC(=O)NCC[C@@H]1CCc2ccc3c(c21)CCO3 [ramelteon, (S)-N-[2-(1,6,7,8-tetrahydro-2H-indeno[5,4-b]furan-8-yl)ethyl]propionamide]
- urethra contracting action [1]: contracted the isolated urethra
- intracellular Ca^2+ concentration (melatonin receptor activating action) [2]: increased
- effect on blood pressure (mean blood pressure) [3]: did not increase the blood pressure
- urethral pressure increasing action [4]: increased the urethral pressure
- contraction action on the isolated bladder [5]: did not exhibit a contraction action
- effect on the rhythmic contraction of the isolated uterus ([6]; FIG. 20): did not have an effect
- contraction action on the isolated uterus ([6]; cumulative 10^-5 M to 10^-11 M): did not exhibit a contraction action
- urethral pressure increasing action [7]: increased the urethral pressure
- intracellular Ca^2+ concentration (melatonin receptor activating action) [8]: increased
